According to patent US12690591B2, “Fungicidal composition containing oxadiazole compounds” (PI INDUSTRIES LIMITED, priority 2021, dated 2026):
Where two headings read alike, the source gives them in different places.

How the values were obtained:
Corynespora cassiicola = Corynespora cassiicola test (tomato), preventive glasshouse spray test; type: in vivo; conditions: single compound
Pyricularia oryzae = test: whole plant or invertebrate; type: in vivo; conditions: for Observed Efficacy (%): preventive spray on rice plants
Phytopthora infestans = type: in vivo; conditions: single compound, tomato, preventive spray
Phakopsora pachyrhizi = Phakopsora pachyrhizi test (soybean), preventive glasshouse spray test; type: in vivo; conditions: for pest or weed control at 0.05 ppm / pest or weed control at 0.0001 ppm / pest or weed control at 0.001 ppm / pest or weed control at 0.01 ppm / pest or weed control at 0.1 ppm: Phakopsora pachyrhizi, read-out: Observed Efficacy (%)
Alternaria solani = Alternaria solani test (tomato plants), preventive glasshouse spray test; conditions: for pest or weed control at 1 ppm / pest or weed control at 5 ppm / pest or weed control at 10 ppm: Alternaria solani, in Solanum lycopersicum, read-out: Observed Efficacy (%)
Septoria nodorum = test: Parastagonospora nodorum/Septoria nodorum/Stagnospora nodorum test (wheat), preventive glasshouse spray test; type: in vivo; conditions: preventive spray on wheat plants
Erysiphe cichoracearum = Erysiphe cichoracearum test (cucumber), preventive glasshouse spray test; conditions: preventive spray on cucumber plants
Botrytis cinerea = Botrytis cinerea test (tomato), preventive glasshouse spray test; type: in vivo
[1] = system: Pseudoperonospora cubensis; test: Pseudoperonospora cubensis test (cucumber), preventive glasshouse spray test; type: in vivo
Excerpt: The test solutions were poured into the spray bottles for further applications.

[2] = Table D1, single compound, 0.05 ppm, soybean, preventive spray
[3] = Pyricularia oryzae, read-out: Observed Efficacy (%)
[4] = Table G1, single compound, 0.1 ppm
[5] = Table G1, single compound, 0.05 ppm
[6] = single compound, Conc. 0.05 ppm
[7] = Table D3, single compound, 0.05 ppm, soybean, preventive spray
[8] = Table D3, single compound, 0.1 ppm, soybean, preventive spray

Compound: Cn1cc(C(=O)Nc2cccc3c2[C@@H]2CC[C@H]3C2=C(Cl)Cl)c(C(F)F)n1 (racemic) [Benzovindiflupyr, benzovindiflupyr]
- Observed Efficacy (%) (Corynespora cassiicola; Conc. 0.05 ppm): 18%

Compound: CO/C=C(/C(=O)OC)c1ccccc1Oc1cc(Oc2ccccc2C#N)ncn1 [Azoxystrobin, azoxystrobin, reference compound]
- Observed Efficacy (%) (Pyricularia oryzae; single compound at 0.1 ppm): 26%

Compound: O=C(Nc1ccccc1-c1ccc(Cl)cc1)c1cccnc1Cl [Boscalid, boscalid, reference compound]
- Observed Efficacy (%) (Phytopthora infestans; Conc. 0.1 ppm): 11%
- pest or weed control at 0.05 ppm (Phakopsora pachyrhizi; [2]): 27%

Compound: O=C(COc1ccc(F)cc1)c1ccc(-c2noc(C(F)(F)F)n2)cc1 [Compound (I-2), 2-(4-fluorophenoxy)-1-(4-(5-(trifluoromethyl)-1,2,4-oxadiazol-3-yl)phenyl)ethan-1-one]
- pest or weed control at 1 ppm (Alternaria solani): 34%
- pest or weed control at 5 ppm (Alternaria solani): 42%
- pest or weed control at 10 ppm (Alternaria solani): 47%
- Observed Efficacy (%) (Septoria nodorum; single compound at 1 ppm): 17%
- Observed Efficacy (%) (Septoria nodorum; single compound at 5 ppm): 20%
- Observed Efficacy (%) (Septoria nodorum; single compound at 10 ppm): 43%
- pest or weed control at 0.0001 ppm (Phakopsora pachyrhizi; Table D1, single compound, 0.0001 ppm, soybean, preventive spray): 40%
- pest or weed control at 0.001 ppm (Phakopsora pachyrhizi; Table D1, single compound, 0.001 ppm, soybean, preventive spray): 50%
- pest or weed control at 0.01 ppm (Phakopsora pachyrhizi; Table D1, single compound, soybean, preventive spray): 62%
- pest or weed control at 1 ppm (Pyricularia oryzae; [3]): 17%
- pest or weed control at 10 ppm (Pyricularia oryzae; [3]): 37%
- Observed Efficacy (%) (Erysiphe cichoracearum; single compound at 1 ppm): 13%
- Observed Efficacy (%) (Botrytis cinerea; Table F1, single compound, 1 ppm, tomato, preventive spray): 20%
- Observed Efficacy (%) (Botrytis cinerea; Table F1, single compound, 5 ppm, tomato, preventive spray): 27%
- Observed Efficacy (%) (Botrytis cinerea; Table F1, single compound, 10 ppm, tomato, preventive spray): 47%

Compound: O=C(COc1ccc(F)nc1)c1ccc(-c2noc(C(F)(F)F)n2)cc1 [Compound (I-3), 2-((6-fluoropyridin-3-yl)oxy)-1-(4-(5-(trifluoromethyl)-1,2,4-oxadiazol-3-yl)phenyl)ethan-1-one]
- pest or weed control at 1 ppm (Alternaria solani): 35%
- pest or weed control at 5 ppm (Alternaria solani): 40%
- pest or weed control at 10 ppm (Alternaria solani): 47%
- Observed Efficacy (%) [1, 4]: 36%
- Observed Efficacy (%) ([1]; Table G1, single compound, 1 ppm): 32%
- Observed Efficacy (%) ([1]; Table G1, single compound, 10 ppm): 34%
- Observed Efficacy (%) (Corynespora cassiicola; Conc. 5 ppm): 36%
- Observed Efficacy (%) (Corynespora cassiicola; Conc. 10 ppm): 45%
- pest or weed control at 0.0001 ppm (Phakopsora pachyrhizi; single compound at 0.0001 ppm, preventive spray on soybean plants): 43%
- pest or weed control at 0.001 ppm (Phakopsora pachyrhizi; single compound at 0.001 ppm, preventive spray on soybean plants): 50%
- pest or weed control at 10 ppm (Pyricularia oryzae; [3]): 42%
- Observed Efficacy (%) (Erysiphe cichoracearum; single compound at 1 ppm): 35%
- Observed Efficacy (%) (Erysiphe cichoracearum; single compound at 5 ppm): 37%
- Observed Efficacy (%) (Erysiphe cichoracearum; single compound at 10 ppm): 39%
- Observed Efficacy (%) (Botrytis cinerea; single compound at 10 ppm, preventive spray on tomato plants): 20%

Compound: O=C(CNc1ccc(F)cc1)c1ccc(-c2noc(C(F)(F)F)n2)cc1 [Compound (I-8), 2-((4-fluorophenyl)amino)-1-(4-(5-(trifluoromethyl)-1,2,4-oxadiazol-3-yl)phenyl)ethan-1-one]
- pest or weed control at 1 ppm (Alternaria solani): 26%
- pest or weed control at 5 ppm (Alternaria solani): 37%
- pest or weed control at 10 ppm (Alternaria solani): 47%
- Observed Efficacy (%) (Phytopthora infestans; Conc. 1 ppm): 32%
- Observed Efficacy (%) (Phytopthora infestans; Conc. 5 ppm): 42%
- Observed Efficacy (%) ([1]; single compound, Conc. 1 ppm): 17%
- Observed Efficacy (%) ([1]; single compound, Conc. 5 ppm): 19%
- Observed Efficacy (%) ([1]; single compound, Conc. 10 ppm): 28%
- pest or weed control at 0.0001 ppm (Phakopsora pachyrhizi; Table D3, single compound, 0.0001 ppm, soybean, preventive spray): 37%
- pest or weed control at 0.001 ppm (Phakopsora pachyrhizi; Table D3, single compound, 0.001 ppm, soybean, preventive spray): 47%
- pest or weed control at 0.01 ppm (Phakopsora pachyrhizi; Table D3, single compound, soybean, preventive spray): 60%
- pest or weed control at 1 ppm (Pyricularia oryzae; [3]): 17%
- pest or weed control at 5 ppm (Pyricularia oryzae; [3]): 22%
- pest or weed control at 10 ppm (Pyricularia oryzae; [3]): 31%
- Observed Efficacy (%) (Erysiphe cichoracearum; single compound at 1 ppm): 19%
- Observed Efficacy (%) (Erysiphe cichoracearum; single compound at 5 ppm): 25%
- Observed Efficacy (%) (Erysiphe cichoracearum; single compound at 10 ppm): 31%

Compound: N#Cc1sc2c(=O)c3ccccc3c(=O)c=2sc1C#N [Dithianon, dithianon]
- Observed Efficacy (%) (Septoria nodorum; single compound at 0.1 ppm): 16%

Compound: O=[N+]([O-])c1cc(C(F)(F)F)c(Cl)c([N+](=O)[O-])c1Nc1ncc(C(F)(F)F)cc1Cl [Fluazinam, fluazinam]
- Observed Efficacy (%) (Septoria nodorum; single compound at 0.1 ppm): 21%
- Observed Efficacy (%) (Corynespora cassiicola; Conc. 0.1 ppm): 12%

Compound: CC1CC(C)(C)c2c(F)ccc(NC(=O)c3cn(C)nc3C(F)F)c21 (centres unmarked) [Fluindapyr, fluindapyr, reference compound]
- Observed Efficacy (%) [1, 5]: 35%
- Observed Efficacy (%) (Pyricularia oryzae; single compound at 0.05 ppm): 11%

Compound: O=C(NCCc1ncc(C(F)(F)F)cc1Cl)c1ccccc1C(F)(F)F [Fluopyram, fluopyram]
- Observed Efficacy (%) (Septoria nodorum; single compound at 0.05 ppm): 8%
- Observed Efficacy (%) (Septoria nodorum; single compound at 0.1 ppm): 21%
- Observed Efficacy (%) [1, 5]: 2%
- Observed Efficacy (%) [1, 4]: 12%
- Observed Efficacy (%) [1, 6]: 2%
- Observed Efficacy (%) ([1]; single compound, Conc. 0.1 ppm): 12%

Compound: O=C1c2ccccc2C(=O)N1SC(Cl)(Cl)Cl [Folpet, folpet, reference compound]
- Observed Efficacy (%) (Phytopthora infestans; Conc. 0.1 ppm): 11%
- Observed Efficacy (%) (Botrytis cinerea; Table F1, single compound, 0.1 ppm, tomato, preventive spray): 38%

Compound: CC1CC(C)(C)c2c(F)ccc(NC(=O)c3cn(C)nc3C(F)F)c21 (centres unmarked) [Inpyrfluxam, inpyrfluxam]
- Observed Efficacy (%) (Alternaria solani; single compound at 0.1 ppm, preventive spray on tomato plants): 23%
- Observed Efficacy (%) (Septoria nodorum; single compound at 0.05 ppm): 12%
- Observed Efficacy (%) (Corynespora cassiicola; Conc. 0.05 ppm): 16%
- Observed Efficacy (%) (Phakopsora pachyrhizi; [2]): 18%

Compound: CC(O)(Cn1cncn1)c1ccc(Oc2ccc(Cl)cc2)cc1C(F)(F)F (centres unmarked) [Mefentrifluconazole, mefentrifluconazole]
- Observed Efficacy (%) (Phakopsora pachyrhizi; [7]): 32%
- Observed Efficacy (%) (Phakopsora pachyrhizi; [8]): 44%

Compound: CNC(=O)/C(=N/OC)c1ccccc1Oc1ccccc1 [Metominostrobin, metominostrobin]
- Observed Efficacy (%) (Septoria nodorum; single compound at 0.05 ppm): 6%
- Observed Efficacy (%) (Septoria nodorum; single compound at 0.1 ppm): 12%

Compound: OC(Cc1ccccc1Cl)(Cn1nc[nH]c1=S)C1(Cl)CC1 (centres unmarked) [Prothioconazole, prothioconazole]
- Observed Efficacy (%) ([1]; single compound, Conc. 0.1 ppm): 45%
- pest or weed control at 0.1 ppm (Phakopsora pachyrhizi; Table D1, single compound, 0.1 ppm, soybean, preventive spray): 48%
- Observed Efficacy (%) (Phakopsora pachyrhizi; [8]): 48%

Compound: COC(=O)N(OC)c1ccccc1COc1ccn(-c2ccc(Cl)cc2)n1 [Pyraclostrobin, pyraclostrobin]
- pest or weed control at 0.05 ppm (Phakopsora pachyrhizi; [7]): 37%
- pest or weed control at 0.1 ppm (Phakopsora pachyrhizi; [8]): 46%

Compound: mancozeb
- Observed Efficacy (%) [1, 5]: 2%
- Observed Efficacy (%) [1, 4]: 5%
- Observed Efficacy (%) [1, 6]: 2%
- Observed Efficacy (%) ([1]; single compound, Conc. 0.1 ppm): 5%
- Observed Efficacy (%) (Corynespora cassiicola; Conc. 0.05 ppm): 10%

Compound: metiram [reference compound]
- Observed Efficacy (%) (Pyricularia oryzae; single compound at 0.1 ppm): 18%
